Experimental data reported in patent US20230100838A1 (Revolution Medicines, Inc., priority 2019, published 2023).

Columns and labels:
Assay type in all cases: binding
[1] = target: T1, GDP-loaded K-Ras (1-169) C51S, C80L, C118S (Homo sapiens, UniProt P01116, C118S/C51S/C80L); assay: K-Ras WT (GDP) cross-linking assay (conjugate formation, TOF mass spectrometry); conditions: percent covalently modified K-Ras by MS, room temperature, typical compound conc. 2, 10, 25 μM, endpoints 1 and 24 h
T1 construct: GDP-loaded K-Ras (1-169) C51S, C80L, C118S
In short: (§1)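 5 μM protein (final, from 50 μM) in HEPES/NaCl/MgCl2 buffer pH 7.4 with compound typically at 2, 10 and 25 μM, room temperature, 1 and 24 h endpoints; formic acid quench. Intact-protein LC–TOF MS; percent modification is covalent adduct peak height over total K-Ras peak height.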

K-Ras G12S = K-Ras G12S (Homo sapiens, UniProt P01116, G12S); assay: K-Ras G12S cross-linking assay (comparable procedure, conjugate formation, TOF mass spectrometry)
In short: as §1

[2] = target: T2, GDP-loaded K-Ras (1-169) G12D, C51S, C80L, C118S (Homo sapiens, UniProt P01116, C118S/C51S/C80L/G12D); assay: K-Ras G12D(GDP) cross-linking assay (conjugate formation, TOF mass spectrometry); conditions: percent covalently modified K-Ras by MS, room temperature, typical compound conc. 2, 10, 25 μM, endpoints 1 and 24 h
T2 construct: GDP-loaded K-Ras (1-169) G12D, C51S, C80L, C118S
In short: as §1

[3] = Table 5, percent covalently modified K-Ras by MS
[4] = Table 4, percent covalently modified K-Ras by MS

Cc1cccc2cccc(N3CCc4c(nc(OC[C@@H]5CCCN5C)nc4N4CCC(N=C=NCCCn5ccnc5)CC4)C3)c12 [Example 88, N-(3-(1H-imidazol-1-yl)propyl)-N-(1-(7-(8-methylnaphthalen-1-yl)-2-(((S)-1-methylpyrrolidin-2-yl)methoxy)-5,6,7,8-tetrahydropyrido[3,4-d]pyrimidin-4-yl)piperidin-4-yl)methanediimine]
WT x-linking (%) ([1]; Table 5): ++ (20 < x ≤ 100) | G12S x-linking (%) (K-Ras G12S; [3]): ++ (10 < x ≤ 100) | G12D x-linking (%) ([2]; Table 5): +++ (40 < x ≤ 100)

Cc1cccc2cccc(N3CCc4c(nc(OC[C@@H]5CCCN5C)nc4NCCNC4=NCCO4)C3)c12 [Example 40, (S)—N^1-(4,5-dihydrooxazol-2-yl)-N^2-(7-(8-methylnaphthalen-1-yl)-2-((1-methylpyrrolidin-2-yl)methoxy)-5,6,7,8-tetrahydropyrido[3,4-d]pyrimidin-4-yl)ethane-1,2-diamine]
WT x-linking (%) ([1]; Table 4): + (0 < x ≤ 20) | G12S x-linking (%) (K-Ras G12S; [4]): + (0 < x ≤ 10) | G12D x-linking (%) ([2]; Table 4): + (0 < x ≤ 20)

Fc1ccccc1-c1c(Cl)cc2c(N3CCC(N=C=Nc4ccccc4)CC3)ncnc2c1F [Example 2, N-(1-(6-chloro-8-fluoro-7-(2-fluorophenyl)quinazolin-4-yl)piperidin-4-yl)-N-phenylmethanediimine]
WT x-linking (%) ([1]; Table 4): + (0 < x ≤ 20) | G12S x-linking (%) (K-Ras G12S; [4]): + (0 < x ≤ 10) | G12D x-linking (%) ([2]; Table 4): + (0 < x ≤ 20)

COCC1(N=C=NC2CCN(c3nc(OC[C@@H]4CCCN4C)nc4c3CCN(c3cccc5cccc(C)c35)C4)CC2)CC1 [Example 80, N-(1-(methoxymethyl)cyclopropyl)-N-(1-(7-(8-methylnaphthalen-1-yl)-2-(((S)-1-methylpyrrolidin-2-yl)methoxy)-5,6,7,8-tetrahydropyrido[3,4-d]pyrimidin-4-yl)piperidin-4-yl)methanediimine]
WT x-linking (%) ([1]; Table 5): + (0 < x ≤ 20) | G12S x-linking (%) (K-Ras G12S; [3]): ++ (10 < x ≤ 100) | G12D x-linking (%) ([2]; Table 5): ++ (20 < x ≤ 40)

Cc1cccc2cccc(N3CCc4c(nc(OC[C@@H]5CCCN5C)nc4N4CCC(N=C=NC5CCN(c6ccccc6)CC5)CC4)C3)c12 [Example 84, N-(1-(7-(8-methylnaphthalen-1-yl)-2-(((S)-1-methylpyrrolidin-2-yl)methoxy)-5,6,7,8-tetrahydropyrido[3,4-d]pyrimidin-4-yl)piperidin-4-yl)-N-(1-phenylpiperidin-4-yl)methanediimine]
WT x-linking (%) ([1]; Table 5): + (0 < x ≤ 20) | G12S x-linking (%) (K-Ras G12S; [3]): + (0 < x ≤ 10) | G12D x-linking (%) ([2]; Table 5): + (0 < x ≤ 20)

Cc1cccc2cccc(N3CCc4c(nc(OC[C@@H]5CCCN5C)nc4N(C)CCN=C=NCc4ccc(Cl)cc4)C3)c12 [Example 28, N-(2-((((4-chlorobenzyl)imino)methylene)amino)ethyl)-N-methyl-7-(8-methylnaphthalen-1-yl)-2-(((S)-1-methylpyrrolidin-2-yl)methoxy)-5,6,7,8-tetrahydropyrido[3,4-d]pyrimidin-4-amine]
WT x-linking (%) ([1]; Table 4): + (0 < x ≤ 20) | G12S x-linking (%) (K-Ras G12S; [4]): ++ (10 < x ≤ 100) | G12D x-linking (%) ([2]; Table 4): ++ (20 < x ≤ 40)

Cc1cccc2cccc(N3CCc4c(nc(OC[C@@H]5CCCN5C)nc4N4CCC(N=C=NCCCN(C)c5ccccc5)CC4)C3)c12 [Example 90, N-methyl-N-(3-((((1-(7-(8-methylnaphthalen-1-yl)-2-(((S)-1-methylpyrrolidin-2-yl)methoxy)-5,6,7,8-tetrahydropyrido[3,4-d]pyrimidin-4-yl)piperidin-4-yl)imino)methylene)amino)propyl)aniline]
WT x-linking (%) ([1]; Table 5): + (0 < x ≤ 20) | G12S x-linking (%) (K-Ras G12S; [3]): + (0 < x ≤ 10) | G12D x-linking (%) ([2]; Table 5): + (0 < x ≤ 20)
